# Source: patent publication US8729034B2, “Pharmaceutical composition having virucidal and spermicidal activity” (priority 2007, dated 2014)
# “Also recorded” adds a separate entry of the source. Where two headings read alike, the source gives them in different places.
# How the values were obtained:
# human spermatozoa [1] = test: Motility revival test (Experiment A); type: cell-based; conditions: human spermatozoa treated at MEC, washed, incubated 30-60 minutes at 37 degree C
# Protocol: Human spermatozoa, treated with Ac-B at MEC and BWW control set were washed twice in pre-equilibrated BWW medium, re-suspended in fresh BWW medium and again incubated in a CO2-incubator at 37 degree C. for 30-60 minutes. At the end of the incubation, wet-preparation of spermatozoa was made from each set on a glass slide. The preparation was examined under a phase contrast microscope (at ×400) to note reversal of motility in 10 fields-of-view.
# female rabbits = test: Contraceptive efficacy following intravaginal application in rabbits; type: in vivo, New Zealand Rabbits; conditions: intra-vaginal
# Protocol: Healthy virgin, nulliparous female rabbits were primed with PMSG (200 i.u.; i.p.; 96 hrs prior to testing) to induce ovulation. Serial dilutions (2.5 mg/ml, 10 mg/ml, 25 mg/ml and 50 mg/ml) of Ac-B in KY-jelly was prepared to be used as test solutions and only KY-jelly was used for control group. Two ml of test/control solution was introduced 6-8 cm deep into the vagina of each rabbit with by the syringe with gavaging needle. The animal was held in supine position for about five minutes and then hand-mated by the selected proven bucks. The buck was allowed one-time mating. To ensure ovulation 100 i.u. of hCG was administered through the marginal ear vein of each participating doe. The vaginal lavage of the mated doe was examined under a microscope. The presence of spermatozoa in the lavage was considered as confirmed mating. The mated does were kept in separate cages to complete their gestation period and the number of delivered pups was recorded. The mean value of the pups was calculated to determine the contraceptive potential.
# NL4.3 virus = test: Anti-HIV activity in P4 (Hela-CD4-LTR-β Gal) cells (p24 ELISA, X-gal staining); type: cell-based, HIV-1; conditions: for Percentage inhibition of hiv growth in p4 cell line, Without Pretreatment: untreated virus; for Inhibition of viral transmission, Ac-B-treated virus: subsequent culture with or without Ac-B
# Protocol: (§1) P4 (Hela-CD4-LTR-β Gal) cells were infected with 0.05 MOI of NL4.3 virus pretreated without or with Ac-B at varying concentrations (1 hour at 37 degree C.) followed by incubation for 48 hours in the presence or absence of Ac-B at a concentration of 0.5 to 2.5 microgram per ml. Virus production was analyzed by ELISA of p24 antigen in the culture supernatant. Viral transmission in the transfected cells was evaluated by X-gal staining, in which an antiretroviral therapeutic drug, Azidothymidine (AZT) was used as positive control.
# [2] = test system: Lactobacillus acidophilus; type: cell-based
# Protocol: The media for culture of bacteria purchased from HI-MEDIA, India and spores of Lactobacillus acidophilus were obtained from pharmaceutical capsule marketed by Infer (India) Limited.
# Sterile, molten (45-50 degree C.) Lactobacilli MRS agar was poured into sterile Petri dishes with (a) 1, 10, 100, 200, 500 mg of Ac-B (Experimental) and (b) without Ac-B (Control). The plates were placed within an incubator having 37 degree C. inside temperature and 5% CO2 in air for 72 hours. The number of colonies and their individual size were compared.
# HIV-1 NL-4.3 virus = type: cell-based; conditions: for Percentage inhibition of hiv growth in CEM-GFP T cell line, Without Pretreatment: untreated virus
# Protocol: (§2) Human CD4+ T cell line CEM-GFP cells were infected with HIV-1 NL-4.3 virus pretreated without or with Ac-B at varying concentrations (1 hour at 37 degree C.) at a multiplicity of infection (MOI) of 0.01. The cells were then cultured in the presence or absence of Ac-B for up to 7 days post infection. Virus production was analyzed in the culture supernatant on day-7 post infection by p24 antigen capture ELISA
# human spermatozoa [3] = test: Penetrak Test (bovine cervical mucus penetration test); type: cell-based; conditions: treated at MEC, washed; 1 hour; BWW control about 27(±3) mm
# Protocol: The bovine cervical mucus penetration test was performed using the Penetrak kit (Serono Diagnostics, Allentown, Pa.).
# Working suspension of human spermatozoa, prepared as above was treated in vitro with Ac-B at MEC, washed and resuspended in pre-equilibrated BWW medium. For the negative control set, same treatment was given to the sperms in BWW medium. Flat-capillary tubes filled with periovulatory mid-cycle bovine cervical mucus, in duplicate, were thawed at room temperature for 30 minutes and snapped at the red score mark above the mucus meniscus. The cut end was placed in tube containing treated/control washed sperm suspension and placed inside a CO2 incubator for 1 hour. The capillary tubes were then taken out, cleaned to remove superficially attached sperms, placed on a calibrated slide and examined by phase contrast microscopy (at ×400). The vanguard sperm was located and the distance (in mm) covered by it was measured to score the penetrating capacity of a sperm of the test sets.
# HIV = test: Inactivation of HIV in vitro (summary statements); type: cell-based
# Protocol: as §2, §1
# rat spermatozoa = test: Hypo-osmotic swelling (HOS) test; type: cell-based
# Protocol: A hypotonic solution was prepared by dissolving 0.735 g sodium citrate dehydrate and 1.351 g fructose in 100 ml distilled water (Milli Q). Aliquots of this solution kept frozen in −20 degree C. and thawed before use. For the test, 200 microliters of working suspension of rat spermatozoa was treated with one ml of Ac-B solution (at MEC) or BWW (as control) for 20 seconds followed by washing with BWW medium and centrifugation at 1000 rpm for 5 min. Finally the sperm pellet was resuspended in 0.1 ml BWW medium. One ml of prewarmed (37 degree C.) HOS solution was added to the suspension and incubated for one hour at 37 degree C. The incubated sperms were examined under a phase contrast microscope at ×400 magnification to observe the curling of tails. Two hundred spermatozoa were examined for each sample.
# [4] = Ac-B 1 microgram per ml, virus pretreated
# [5] = Ac-B 2 microgram per ml, virus pretreated
# [6] = Ac-B 2.5 microgram per ml, virus pretreated
substance,measurement,setting,value
Acaciaside-B [Ac-B],Revival of motility after washing and re-incubation,human spermatozoa [1],no sign for revival of motility; also recorded: irreversible
same,Mean numbers of pups delivered,female rabbits; 2 ml of 2.5 mg/ml Acaciaside-B in K-Y jelly (n = 5),3.4
same,Mean numbers of pups delivered,female rabbits; 2 ml of 10 mg/ml Acaciaside-B in K-Y jelly (n = 5),2.2
same,Mean numbers of pups delivered,female rabbits; 2 ml of 25 mg/ml Acaciaside-B in K-Y jelly (n = 5),0.2
same,Mean numbers of pups delivered,female rabbits; 2 ml of 50 mg/ml Acaciaside-B in K-Y jelly (n = 5),0.0
same,"Percentage inhibition of hiv growth in p4 cell line, Without Pretreatment","NL4.3 virus; Ac-B 0.5 microgram per ml, 48 hours",0%
same,"Percentage inhibition of hiv growth in p4 cell line, Pretreatment with Ac-B","NL4.3 virus; Ac-B 0.5 microgram per ml, virus pretreated 1 hour at 37 degree C, 48 hours",76.53%
same,"Anti-HIV activity by X-gal staining, compared with AZT",NL4.3 virus; Ac-B 1.0 microgram per ml (0.005 micromoles) vs AZT at 2 micromole,comparable to or greater than that induced by AZT
same,"Percentage inhibition of hiv growth in p4 cell line, Without Pretreatment",NL4.3 virus; Ac-B 1 microgram per ml,0%
same,"Percentage inhibition of hiv growth in p4 cell line, Pretreatment with Ac-B",NL4.3 virus; [4],95.86%
same,"Percentage inhibition of hiv growth in p4 cell line, Without Pretreatment",NL4.3 virus; Ac-B 2 microgram per ml,0%
same,"Percentage inhibition of hiv growth in p4 cell line, Pretreatment with Ac-B",NL4.3 virus; [5],96%
same,"Percentage inhibition of hiv growth in p4 cell line, Without Pretreatment",NL4.3 virus; Ac-B 2.5 microgram per ml,0%
same,"Percentage inhibition of hiv growth in p4 cell line, Pretreatment with Ac-B",NL4.3 virus; [6],95.53%
same,"Inhibition of viral transmission, Ac-B-treated virus",NL4.3 virus; Ac-B greater than or equal to 1.5 microgram per ml,> 95%
same,"Inhibition of viral transmission, Ac-B-treated virus",NL4.3 virus; Ac-B ≧1.0 mcg/ml,> 95%
same,"Inhibition of viral transmission, untreated virus",NL4.3 virus; cells infected with untreated virus and cultured in the presence of Ac-B,no inhibition of viral transmission
same,Dose level not affecting growth of Lactobacillus acidophilus,[2],≥ 500 mg/mL
same,Size of Lactobacillus colonies grown in the presence of Ac-B,[2],comparable to that of control
same,"Percentage inhibition of hiv growth in CEM-GFP T cell line, Without Pretreatment","HIV-1 NL-4.3 virus; Ac-B 0.1 microgram per ml, day-7 p24",0%
same,"Percentage inhibition of hiv growth in CEM-GFP T cell line, Pretreatment with Ac-B","HIV-1 NL-4.3 virus; Ac-B 0.1 microgram per ml, virus pretreated 1 hour at 37 degree C, day-7 p24",70.5%
same,"Percentage inhibition of hiv growth in CEM-GFP T cell line, Without Pretreatment",HIV-1 NL-4.3 virus; Ac-B 0.2 microgram per ml,0%
same,"Percentage inhibition of hiv growth in CEM-GFP T cell line, Pretreatment with Ac-B","HIV-1 NL-4.3 virus; Ac-B 0.2 microgram per ml, virus pretreated",77.8%
same,"Percentage inhibition of hiv growth in CEM-GFP T cell line, Without Pretreatment",HIV-1 NL-4.3 virus; Ac-B 0.25 microgram per ml,0%
same,"Percentage inhibition of hiv growth in CEM-GFP T cell line, Pretreatment with Ac-B","HIV-1 NL-4.3 virus; Ac-B 0.25 microgram per ml, virus pretreated",92%
same,"Percentage inhibition of hiv growth in CEM-GFP T cell line, Without Pretreatment",HIV-1 NL-4.3 virus; Ac-B 0.5 microgram per ml,36.1%
same,"Percentage inhibition of hiv growth in CEM-GFP T cell line, Pretreatment with Ac-B","HIV-1 NL-4.3 virus; Ac-B 0.5 microgram per ml, virus pretreated",90.6%
same,"Percentage inhibition of hiv growth in CEM-GFP T cell line, Without Pretreatment",HIV-1 NL-4.3 virus; Ac-B 1 microgram per ml,60.5%
same,"Percentage inhibition of hiv growth in CEM-GFP T cell line, Pretreatment with Ac-B",HIV-1 NL-4.3 virus; [4],99.73%
same,"Percentage inhibition of hiv growth in CEM-GFP T cell line, Without Pretreatment",HIV-1 NL-4.3 virus; Ac-B 1.5 microgram per ml,100%
same,"Percentage inhibition of hiv growth in CEM-GFP T cell line, Pretreatment with Ac-B","HIV-1 NL-4.3 virus; Ac-B 1.5 microgram per ml, virus pretreated",100%
same,"Percentage inhibition of hiv growth in CEM-GFP T cell line, Without Pretreatment",HIV-1 NL-4.3 virus; Ac-B 2 microgram per ml,100%
same,"Percentage inhibition of hiv growth in CEM-GFP T cell line, Pretreatment with Ac-B",HIV-1 NL-4.3 virus; [5],100%
same,"Percentage inhibition of hiv growth in CEM-GFP T cell line, Without Pretreatment",HIV-1 NL-4.3 virus; Ac-B 2.5 microgram per ml,100%
same,"Percentage inhibition of hiv growth in CEM-GFP T cell line, Pretreatment with Ac-B",HIV-1 NL-4.3 virus; [6],100%
same,"Inhibition of viral transmission, untreated virus","HIV-1 NL-4.3 virus; cells infected with untreated virus, cultured in the presence of Ac-B 0.1 to 2.5 microgram per ml",only partial inhibition
same,Penetration of vanguard sperm into bovine cervical mucus column,human spermatozoa [3],capillary was devoid of sperm inside the mucus column
same,Dose level preventing HIV infection in vitro,HIV,greater than or equal to 1.0 microgram per ml
same,"Response to HOS (HOS+), Hypo-osmotic Swelling Test","rat spermatozoa; Ac-B at MEC for 20 seconds, 1 hour in HOS solution at 37 degree C",0% (HOS+)
same,HOS reactivity (curling of tails) of treated spermatozoa,rat spermatozoa; Ac-B treated,no HOS reactivity; also recorded: absence of curling
